Source: patent US7476664B2, “Bis-2-difluoro-pyrrolo[2,1-C][1,4]benzodiazepine dimers” (priority 2007, dated 2009)

System: calf thymus (CT) DNA
Type: binding
Conditions: for ΔTm (° C.) after incubation at 37° C. for 0 h / ΔTm (° C.) after incubation at 37° C. for 18 h / ΔTm (° C.) after incubation at 37° C. for 36 h: [PBD]:[DNA] molar ratio 1:5, CT-DNA 100 μM, ligand 20 μM, 10 mM sodium phosphate + 1 mM EDTA, pH 7.00; for ΔTm (° C.) after incubation at 37° C. for 0 h: 0 h incubation at 37° C.; for ΔTm (° C.) after incubation at 37° C. for 18 h: 18 h incubation at 37° C.; for ΔTm (° C.) after incubation at 37° C. for 36 h: 36 h incubation at 37° C.
Experimental: The DNA binding affinity of the novel C2 di-fluoro PBD dimers (VIIa-c) was investigated by thermal denaturation studies using calf thymus (CT) DNA (Jones, G. B.; Davey, C. L.; Jenkins, T. C.; Kamal, A.; Kneale, G. G.; Neidle, S.; Webster, G. D.; Thurston, D. E. Anti-Cancer Drug Des. 1990, 5, 249. McConnaughie, A. W.; Jenkins, T. C. J. Med. Chem. 1995, 38, 3488). The studies for these compounds (VIIa-c) were carried out by DNA/ligand molar ratios of 5:1. The increase in the helix melting temperature. (ΔTm) for each compound was examined after 0, 18 and 36 h incubation at 37° C.

Row | Compound | ΔTm (° C.) after incubation at 37° C. for 0 h [°C] | ΔTm (° C.) after incubation at 37° C. for 18 h [°C] | ΔTm (° C.) after incubation at 37° C. for 36 h [°C] | ΔTm (increase in the helix melting temperature) (under identical experimental conditions, DNA/ligand molar ratio 5:1, incubation time not stated) [°C]
1 | 1,1′-{[(butane-1,4-diyl)]dioxy}bis[(11aS)-2,2-difluoro-7-methoxy-1,2,3,11a-tetrahydro-5H-pyrrolo[2,1-c][1,4]benzodiazepin-5-one [VIIb] | 4.2 | 23.4 | 24.7 | 
2 | COc1ccc2c(c1)C(=O)N1CC(F)(F)C(OCCCOC3[C@@H]4C=Nc5ccc(OC)cc5C(=O)N4CC3(F)F)[C@@H]1C=N2 (stereo partly drawn) [VIIa, 1,1′-{[(propane-1,3-diyl)]dioxy}bis[(11aS)-2,2-difluoro-7-methoxy-1,2,3,11a-tetrahydro-5H-pyrrolo[2,1-c][1,4]benzodiazepin-5-one]] | 13.1 | 23.4 | 27.5 | 
3 | COc1cc2c(cc1O)N=CC1CCCN1C2=O (stereo not shown) [DC-81, reference compound] | 0.3 | 0.7 | 0.7 | 0.7
4 | 1,1′-{[(pentane-1,5-diyl)]dioxy}bis[(11aS)-2,2-difluoro-7-methoxy-1,2,3,11a-tetrahydro-5H-pyrrolo[2,1-c][1,4]benzodiazepin-5-one [VIIc] | 18.9 | 24.5 | 28.4 | 
